“Also recorded” adds a separate entry of the source. Where two headings read alike, the source gives them in different places. Non-standard residues stand in square brackets, D forms with d. Residues, ends and D or L forms follow the SMILES beside them. *: point of attachment. Biotin = O=C1N[C@H]2[C@H](CS[C@H]2CCCCC(=O)*)N1; pY = N[C@@H](Cc1ccc(OP(=O)(O)O)cc1)C(=O)O
Columns and labels:
[1] = molecular target: T1, EAT-2 (Homo sapiens, UniProt O14796); assay: SPR binding of EAT-2 to immobilised phosphopeptides; details: 37°C
T1 construct: His-tag; made in house; host or cells: E. coli BL21(DE3)pLysS
T1 sequence (O14796 1-132): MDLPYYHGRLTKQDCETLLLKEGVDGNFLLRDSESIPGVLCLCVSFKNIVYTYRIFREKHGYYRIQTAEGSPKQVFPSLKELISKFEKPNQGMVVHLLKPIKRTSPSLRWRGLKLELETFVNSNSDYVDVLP
Source text: (§1) Biotinylated EAT-2 was produced by expression of full length human EAT-2 with a C-terminal BirA tag ([…]) in the E coli expression vector pTrcHisA. Constructs encoding the 6xHis-tagged tandem SH2 domains plus the SH3 domains of PLCγ1 (Swiss-Prot: P19174, aa 536–863) and PLCγ2 (Swiss-Prot: P16885, aa 519–838) were generated in pTrcHisA (5′ joining sequence with BglII site underlined: gag atc tcc translates as EIS). The molecular weight (MW) and theoretical extinction coefficients (EC) of recombinant PLCγ1 and PLCγ2 SH2-SH2-SH3 domains were PLCγ1; MW = 42531, EC = 63,830 M^−1 cm^−1 and PLCγ2; MW = 42415, EC = 67,270 M^−1 cm^−1.
Soluble recombinant proteins were produced in BL21(DE3)pLysS E. coli (Calbiochem) at 37°C in 2TY medium and induced at OD 600 = 0.6 with 0.1 mM IPTG for 4 h or in 2XYT auto-induction (Formedium) medium overnight. Bacterial pellets were resuspended in ∼0.1 volume 10 mM HEPES pH7.4, 150 mM NaCl and used immediately or stored at −20°C in 10 ml aliquots. His-tag mediated protein purification was performed on a Co^2+ or Ni^2+ column by standard protocols. […] Where applicable, proteins were stored frozen in 10–25 mM HEPES pH 7.4, 200–300 mM NaCl (pH 7.4).All proteins were purified by size exclusion chromatography immediately prior to SPR analysis.
Measurements of protein-protein affinity were performed on BIAcore 3000 and T200 systems using CM5 or biotin capture chips (GE Healthcare Ltd, UK). Streptavidin was coupled to CM5 sensor chips using standard NHS/EDC chemical linkage, followed by immobilization of biotinylated peptides. The levels of peptide immobilized were approximately 25 and 50 response units respectively of single and tandem tyrosine motifs to facilitate saturating binding and limitation of “bridging” [22], [45]. Purified recombinant proteins were passed over the immobilized peptides at a range of concentrations in HBS-EP buffer, 10 mM HEPES pH 7.4, 150 mM NaCl, 3.4 mM EDTA, 0.005% surfactant, P20. Equilibrium binding coefficients and dissociation and association rates were calculated using BIAevaluation and/or GraphPad Prism 5.4 software.
(§2) The specificities of their SH2 domains overlap, introducing the concept of competition between them for ITSMs in cells where they are co-expressed, including NK cells.

[2] = molecular target: T2, PLCγ2 (SH2-SH2-SH3) (Homo sapiens, UniProt P16885); assay: SPR binding of PLCγ2 SH2-SH2-SH3 to immobilised phosphopeptides; details: KD (Figure 7B), 37°C, ten two-fold dilutions, top concentration 1 μM, one-site specific binding model, curve shown in Figure 7B
T2 construct: PLCγ2 (Swiss-Prot: P16885, aa 519–838); 6xHis (N); made in house; host or cells: E. coli BL21(DE3)pLysS
T2 sequence (P16885 519-838): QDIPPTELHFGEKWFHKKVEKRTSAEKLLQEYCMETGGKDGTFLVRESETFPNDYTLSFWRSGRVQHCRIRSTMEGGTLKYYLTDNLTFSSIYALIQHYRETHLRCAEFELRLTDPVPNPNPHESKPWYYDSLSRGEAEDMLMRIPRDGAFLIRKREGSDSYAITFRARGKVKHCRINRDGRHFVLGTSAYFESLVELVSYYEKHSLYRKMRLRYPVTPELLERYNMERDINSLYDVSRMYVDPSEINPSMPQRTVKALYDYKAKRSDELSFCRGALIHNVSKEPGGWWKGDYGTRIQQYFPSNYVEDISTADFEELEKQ
Source text: as §1
(§3) Soluble recombinant proteins were produced in BL21(DE3)pLysS E. coli (Calbiochem) at 37°C in 2TY medium and induced at OD 600 = 0.6 with 0.1 mM IPTG for 4 h or in 2XYT auto-induction (Formedium) medium overnight. Bacterial pellets were resuspended in ∼0.1 volume 10 mM HEPES pH7.4, 150 mM NaCl and used immediately or stored at −20°C in 10 ml aliquots. His-tag mediated protein purification was performed on a Co^2+ or Ni^2+ column by standard protocols. […]
(§4) Measurements of protein-protein affinity were performed on BIAcore 3000 and T200 systems using CM5 or biotin capture chips (GE Healthcare Ltd, UK). […] Equilibrium binding coefficients and dissociation and association rates were calculated using BIAevaluation and/or GraphPad Prism 5.4 software. […]

[3] = molecular target: T3, PLCγ1 (SH2-SH2-SH3) (Homo sapiens, UniProt P19174); assay: SPR binding of PLCγ1 SH2-SH2-SH3 to immobilised phosphopeptides; details: 37°C, ten two-fold dilutions, top concentration 1 μM, one-site specific binding model, curve shown in Figure 7B
T3 construct: PLCγ1 (Swiss-Prot: P19174, aa 536–863); 6xHis (N); made in house; host or cells: E. coli BL21(DE3)pLysS
T3 sequence (P19174 536-863): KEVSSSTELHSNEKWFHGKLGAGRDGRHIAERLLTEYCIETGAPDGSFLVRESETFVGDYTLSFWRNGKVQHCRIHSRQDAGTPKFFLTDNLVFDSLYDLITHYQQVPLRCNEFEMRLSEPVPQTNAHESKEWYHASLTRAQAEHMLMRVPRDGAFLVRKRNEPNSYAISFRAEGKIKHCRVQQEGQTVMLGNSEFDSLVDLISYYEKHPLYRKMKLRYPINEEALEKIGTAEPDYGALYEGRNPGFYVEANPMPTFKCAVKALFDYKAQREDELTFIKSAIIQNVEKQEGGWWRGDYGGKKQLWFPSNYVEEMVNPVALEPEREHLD
Source text: as §1, §3, §4

[4] = molecular target: T4, SHIP SH2 from SHIP-1 (Homo sapiens, UniProt Q92835); assay: SPR binding of SHIP SH2 domain to immobilised phosphopeptides; details: 37°C, equilibrium binding analysis
T4 construct: the single SH2 domain from SHIP-1; His-tag; made in house; host or cells: E. coli BL21(DE3)pLysS
T4 sequence (Q92835 5-101 limits assumed): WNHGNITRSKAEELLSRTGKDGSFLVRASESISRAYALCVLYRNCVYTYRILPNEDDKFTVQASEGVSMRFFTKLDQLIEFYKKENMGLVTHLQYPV
Source text: as §1
Measurements of protein-protein affinity were performed on BIAcore 3000 and T200 systems using CM5 or biotin capture chips (GE Healthcare Ltd, UK). Streptavidin was coupled to CM5 sensor chips using standard NHS/EDC chemical linkage, followed by immobilization of biotinylated peptides. The levels of peptide immobilized were approximately 25 and 50 response units respectively of single and tandem tyrosine motifs to facilitate saturating binding and limitation of “bridging” [22], [45]. […] Equilibrium binding coefficients and dissociation and association rates were calculated using BIAevaluation and/or GraphPad Prism 5.4 software. […]

[5] = tested on: EAT-2; details: ref [30]; cited from earlier work
Source text: as §2

[6] = molecular target: T5, SAP (Homo sapiens, UniProt O60880); assay: SPR binding of SAP to immobilised phosphopeptides; details: 37°C
T5 construct: His-tag; made in house; host or cells: E. coli BL21(DE3)pLysS
T5 sequence (O60880 1-128): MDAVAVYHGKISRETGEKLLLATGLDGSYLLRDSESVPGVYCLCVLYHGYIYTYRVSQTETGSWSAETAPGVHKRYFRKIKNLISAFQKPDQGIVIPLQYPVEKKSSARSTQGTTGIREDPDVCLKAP

[7] = Pull-down with phosphorylated CD244 ITSM1 from NK cell lysates, LC-MS/MS; format: binding; details: human NK cell lysates; compared with control phosphopeptide SHIP-1 Y865
Experimental: For pull-down of associated proteins, streptavidin Sepharose (GE Healthcare) was pre-coated with saturating amounts of peptide or EAT-2. NK92 cells (4×10^8) were treated with 500 μM pervanadate for 15 minutes, then lysed in PBS, 1% Triton X-100, 1 mM sodium orthovanadate in the presence of mammalian protease inhibitor solution (Sigma). Lysates were pre-cleared by centrifugation, followed by incubation with streptavidin Sepharose. Peptide or EAT-2-coated streptavidin beads were incubated with NK92 lysates for 2 hours at 4°C with rotation. Beads were washed once with 15 ml ice cold PBS/1% (v/v) Triton X-100. Bound protein was eluted using 100 mM glycine-HCl pH 2.5.
Protein samples were prepared for mass spectrometry as described previously. Briefly, eluted proteins were spun onto the membranes of Vivacon 500 filters (10,000 MWCO – Sartorius). Membranes were washed once with PBS then proteins were denatured with 8 M urea, reduced with 10 mM DTT in 25 mM ammonium bicarbonate buffer, followed by alkylation with 50 mM iodoacetamide. Proteins were then digested overnight with trypsin. Tryptic peptides were then eluted from the membrane and analyzed on an Ultimate 3000 HPLC-coupled Orbitrap XL mass spectrometer. Proteins were identified by liquid chromatography-coupled tandem mass-spectrometry (LC-MS/MS). Raw data files were converted to mzXML format using ReADW (v. 4.2.1) and submitted to the Central Proteomics Facilities Pipeline for database comparison and peptide identification. Searching against the International Protein Index (IPI) human protein sequence database for protein identification, protein and peptide hits were statistically validated by applying a 1% false discovery rate (FDR) by searching against a concatenated target/decoy database. Datasets were searched with variable peptide modifications for phosphotyrosine, phosphoserine, phosphothreonine, oxidation of methionine and deamination.
Protein identification data were exported into ProteinCenter (v3.8.3013 – Thermo Fisher) for filtering and annotation. Results were filtered to remove any proteins with less than 3 unique peptides, less than 10 percent sequence coverage, or median protein probability scores less than 0.5. To establish sample specificity, any protein with at least 10-fold greater sequence coverage in one sample compared with the other was considered to be specific for that sample.
Similarly, differences in specificity of inhibitory SH2 domain containing proteins for ITSMs are relevant to understanding mechanisms of inhibition by ITSMs. We focused on CD244 ITSMs to establish general paradigms.

[8] = ten two-fold dilutions, top concentration 0.3 μM, one-site specific binding model, curve shown in Figure 2B, read-out: KD (Figure 2B)

CC[C@H](C)[C@H](NC(=O)[C@@H](NC(=O)[C@H](CC(C)C)NC(=O)[C@H](Cc1ccccc1)NC(=O)[C@H](CCC(=O)O)NC(=O)CCCC[C@@H]1SC[C@@H]2NC(=O)N[C@@H]21)[C@@H](C)O)C(=O)N[C@@H](Cc1ccc(OP(=O)(O)O)cc1)C(=O)N[C@@H](CCC(=O)O)C(=O)N[C@@H](CC(=O)O)C(=O)N[C@H](C(=O)N[C@@H](CCCCN)C(=O)N[C@@H](CC(=O)O)C(=O)O)C(C)C [CD244 ITSM1]
Kd ([1]; HBS-EP pH 7.4, soluble EAT-2, immobilised phosphopeptide, mean, n and range in own columns of Table 4, read-out: KD): 0.06 µM | Kd [1, 8]: 0.012 µM | Kd [2]: 0.36 µM | Kd [3]: 0.13 µM

CC[C@H](C)[C@H](NC(=O)[C@H](CCSC)NC(=O)[C@H](CO)NC(=O)[C@H](Cc1ccc(OP(=O)(O)O)cc1)NC(=O)[C@@H](NC(=O)[C@@H](NC(=O)[C@H](CO)NC(=O)CNC(=O)CNC(=O)CCCC[C@@H]1SC[C@@H]2NC(=O)N[C@@H]21)[C@@H](C)O)[C@@H](C)CC)C(=O)N[C@@H](CCC(N)=O)C(=O)N[C@@H](CO)C(=O)O [CD244 ITSM2]
binding of SHIP SH2 domain [4]: preference of SHIP SH2 domain

CC[C@H](C)[C@H](NC(=O)[C@H](CC(C)C)NC(=O)[C@H](CO)NC(=O)[C@H](Cc1ccc(OP(=O)(O)O)cc1)NC(=O)[C@H](CC(C)C)NC(=O)[C@@H](NC(=O)[C@H](Cc1ccc(O)cc1)NC(=O)[C@H](C)NC(=O)[C@@H]1CCCN1C(=O)CCCC[C@@H]1SC[C@@H]2NC(=O)N[C@@H]21)[C@@H](C)O)C(=O)N[C@@H](CCC(N)=O)C(=O)N1CCC[C@H]1C(=O)O [CD244 ITSM3] (Biotin-PAYTL[pY]SLIQP-OH; C-terminus assumed)
binding of SHIP SH2 domain [4]: preference of SHIP SH2 domain

CC[C@H](C)[C@H](NC(=O)[C@H](CCC(=O)O)NC(=O)[C@@H](NC(=O)[C@@H](NC(=O)[C@H](CO)NC(=O)[C@H](Cc1ccc(OP(=O)(O)O)cc1)NC(=O)[C@@H](NC(=O)[C@@H](NC(=O)[C@H](CC(N)=O)NC(=O)[C@H](C)NC(=O)[C@@H]1CCCN1C(=O)CCCC[C@@H]1SC[C@@H]2NC(=O)N[C@@H]21)[C@@H](C)O)C(C)C)[C@@H](C)O)C(C)C)C(=O)O [CRACC ITSM2] (Biotin-PANTV[pY]STVEI-OH)
Kd [1, 8]: 0.001 µM

CC(C)C[C@H](NC(=O)[C@@H](NC(=O)[C@H](CC(=O)O)NC(=O)[C@@H](NC(=O)[C@H](Cc1ccc(OP(=O)(O)O)cc1)NC(=O)[C@H](CC(=O)O)NC(=O)[C@H](CO)NC(=O)[C@H](CC(N)=O)NC(=O)[C@H](CO)NC(=O)[C@H](CC(N)=O)NC(=O)CCCC[C@@H]1SC[C@@H]2NC(=O)N[C@@H]21)C(C)C)C(C)C)C(=O)N1CCC[C@H]1C(=O)O [EAT-2 Y127] (Biotin-NSNSD[pY]VDVLP-OH)
Kd [2]: 0.087 µM | Kd [3]: 0.018 µM

ADYDTI [mouse CRACC tyrosine motif in the equivalent position to human CRACC ITSM1]
binding of EAT-2 to mouse CRACC motif [5]: did not bind EAT-2

Biotin-GENTEpYDTIPH [CRACC ITSM1, synthetic biotinylated phosphopeptide from human CRACC ITSM1]
binding of EAT-2 [1]: Neither SAP nor EAT-2 bound; also recorded: No specific association | binding of SAP [6]: Neither SAP nor EAT-2 bound; also recorded: No specific association

Growth factor receptor-bound protein 2 (GRB2): SH2 domain containing protein pulled down by CD244 ITSM1
pull-down by CD244 ITSM1 [7]: pulled down by the ITSM peptide

SHP-1: SH2 domain containing phosphatase
pull-down by CD244 ITSM1 [7]: pulled down by the ITSM peptide

SHP-2: SH2 domain containing tyrosine phosphatase
pull-down by CD244 ITSM1 [7]: pulled down by the ITSM peptide

— PMC3958483, “Fine Specificity and Molecular Competition in SLAM Family Receptor Signalling” (PLoS ONE, 2014)
